The record followed here is PubChem BioAssay (NCI).

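48-hour exposure; five concentrations; linearly interpolated endpoints. Definition used: TGI = concentration required for complete inhibition of growth.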

The first assay relates to HCT-15 colon. In words: growth of human tumour cells (NCI), 48 h.
Regarding `CC1=NN(c2cccc(Cl)c2)C2(SCC(=O)N2c2nc3ccccc3s2)/C1=C\c1ccccc1O` (stereo not given), the TGI was determined as 34.1 µM.
Turning to `CCCCCCOc1ccc(C(=O)NOC)cc1`, the TGI was above 100 µM.
Compound `Cc1c(S(=O)(=O)c2ccccc2)c(N)n(CCN(C)C)c1C` came in with a TGI above 100 µM.
As to `CC1CCC(C(=O)O)(C(Br)C(=O)O)CC1` (stereo not given), the TGI is above 100 µM.
`COc1cc(NS(C)(=O)=O)ccc1Nc1cc(C)[nH]c2ccc3nccc3c12` had a TGI above 100 µM.
As to `CCOC(=O)Cn1c(=O)c2nc(SC)sc2n(-c2ccccc2)c1=O`, the TGI is above 100 µM.
Still for that read-out and setting: to `COc1ccc(-c2nc(SCC(=O)N/N=C/c3ccc(N(C)C)cc3)[nH]c2-c2ccc(OC)cc2)cc1` belongs above 100 µM.
The compound `c1c[nH]c(-c2ccc(-c3ccc[nH]3)c3nsnc23)c1` displayed a TGI above 76.8 µM.
In the case of `CS(=O)(=O)OCC(CCl)(CCl)CCl`, the TGI is above 100 µM.
On the same count and under the same terms, next, `N#Cc1c(-c2ccccc2)/c(=C\Nc2ccc(F)cc2)c(=O)n2c1nc1ccccc12`: above 100 µM; `CCN(CC)CCn1c(=O)c2cccnc2n2c3c(=O)n(C)c(=O)n(C)c3nc12`: 27.3 µM.
In turn, `CCOC(=O)C1=C(C)C2C=C(c3cccs3)CC(c3ccc(Cl)cc3)=C2OC1=O` (stereo not given) displayed a TGI of 56.5 µM.
Same read-out and setting: next, `OCCc1ccsc1-c1sc(-c2cc(CCO)c(-c3sccc3CCO)s2)cc1CCO`: 40.5 µM; `COc1ccc2c(c1)OCC1Cc3ccccc3OC21` (stereo not given): above 100 µM.
Regarding `Cc1cc2c3c(nc4ccccc42)C(=O)c2ccccc2-c3n1`, the TGI is 16.8 µM.
The compound `CCOC(=O)c1nc2c(nc1C(=O)OCC)C(=O)c1ccccc1C2=O` gave a TGI above 34.4 µM.
The same measure, in the same setting: next, `CCOC(=O)c1c(C)nc2c3ccccc3c(C#N)c(C)n12`: above 100 µM; `Cc1ccc(C(=C2Sc3ccccc3S2)C(=C2Sc3ccccc3S2)c2ccc(C)s2)s1`: above 100 µM.
Compound `CCCCC(C(=O)NCCNC(=O)CCC(=O)N(C)O)C(=O)NCCNC(=O)CCC(=O)N(C)O` had a TGI above 100 µM.
Consider `O=c1[nH]c(Nc2nc3ccccc3[nH]2)nc(O)c1-c1ccccc1`, for which the TGI is above 100 µM.
The same measure, in the same setting: to `COc1cccc2c1OC1(C=C2)Oc2ccccc2C(=O)N1C` (stereo not given) belongs above 100 µM; to `CC1=NS(=O)(=O)c2ccccc2N1`, above 100 µM.
On to `O=C(CC(C(=O)c1ccsc1)c1ccc2c(c1)OCO2)c1ccccc1` (stereo not given), for which the TGI was above 100 µM.
Compound `COc1ccc(NC(=O)CC(=O)N2N=C(N3c4ccccc4Sc4ccccc43)CC2c2ccccc2)cc1` (stereo not given) showed a TGI above 100 µM.
For `O=C(O)CCC(=O)OC1N=C(c2ccccc2Cl)c2cc([N+](=O)[O-])ccc2NC1=O` (stereo not given), the TGI was above 100 µM.
The same measure, in the same setting: to `COc1ccc(C2=N/C(=C\c3ccccc3)C(=O)O2)cc1` belongs above 100 µM; to `CC1(C)C2CCC1(C)[C@H](n1c(=O)n([C@@H]3CC4CCC3(C)C4(C)C)c(=O)n([C@@H]3CC4CCC3(C)C4(C)C)c1=O)C2`, above 100 µM.
Still for that read-out and setting: next, `CSc1nsc(-c2ccccc2)[s+]1`: above 100 µM.
`CC(=N/N=C/c1ccccn1)/C(C)=N/N=C(C)/C(C)=N/N=C(C)/C(C)=N/N=C(C)/C(C)=N\N=C\c1ccccn1` showed a TGI above 100 µM.
Still for that read-out and setting: next, `Cc1ccc(-c2[nH]c(=O)n(C3OC(CO)C(O)C(O)C3O)c(=O)c2C#N)cc1` (stereo not given): above 100 µM; `Cc1cc(C(=O)CCCCOc2ccc(C3=NCCO3)cc2)c(C)n1C`: above 100 µM.

A further assay has as its system SK-MEL-5 melanoma. In words: growth of human tumour cells (NCI), 48 h.
`CC1=NN(c2cccc(Cl)c2)C2(SCC(=O)N2c2nc3ccccc3s2)/C1=C\c1ccccc1O` (stereo not given) displayed a TGI of 32.3 µM.
For the compound `CCCCCCOc1ccc(C(=O)NOC)cc1`, the TGI was above 100 µM.
Same read-out and setting: to `Cc1c(S(=O)(=O)c2ccccc2)c(N)n(CCN(C)C)c1C` belongs above 100 µM.
Still for that read-out and setting: to `CC1CCC(C(=O)O)(C(Br)C(=O)O)CC1` (stereo not given) belongs above 100 µM; to `COc1cc(NS(C)(=O)=O)ccc1Nc1cc(C)[nH]c2ccc3nccc3c12`, above 100 µM.
Compound `CCOC(=O)Cn1c(=O)c2nc(SC)sc2n(-c2ccccc2)c1=O` displayed a TGI above 100 µM.
For `COc1ccc(-c2nc(SCC(=O)N/N=C/c3ccc(N(C)C)cc3)[nH]c2-c2ccc(OC)cc2)cc1`, the TGI was above 100 µM.
Consider `c1c[nH]c(-c2ccc(-c3ccc[nH]3)c3nsnc23)c1`, for which the TGI is above 100 µM.
The same measure, in the same setting: next, `CS(=O)(=O)OCC(CCl)(CCl)CCl`: above 100 µM; `N#Cc1c(-c2ccccc2)/c(=C\Nc2ccc(F)cc2)c(=O)n2c1nc1ccccc12`: above 100 µM; `CCN(CC)CCn1c(=O)c2cccnc2n2c3c(=O)n(C)c(=O)n(C)c3nc12`: above 100 µM.
The same measure, in the same setting: next, `CCOC(=O)C1=C(C)C2C=C(c3cccs3)CC(c3ccc(Cl)cc3)=C2OC1=O` (stereo not given): above 100 µM; `OCCc1ccsc1-c1sc(-c2cc(CCO)c(-c3sccc3CCO)s2)cc1CCO`: 52.9 µM; `COc1ccc2c(c1)OCC1Cc3ccccc3OC21` (stereo not given): above 10 µM.
`Cc1cc2c3c(nc4ccccc42)C(=O)c2ccccc2-c3n1` gave a TGI of 3.1 µM.
Still for that read-out and setting: to `CCOC(=O)c1nc2c(nc1C(=O)OCC)C(=O)c1ccccc1C2=O` belongs 2.19 µM; to `CCOC(=O)c1c(C)nc2c3ccccc3c(C#N)c(C)n12`, above 100 µM; to `Cc1ccc(C(=C2Sc3ccccc3S2)C(=C2Sc3ccccc3S2)c2ccc(C)s2)s1`, above 100 µM.
Still for that read-out and setting: next, `CCCCC(C(=O)NCCNC(=O)CCC(=O)N(C)O)C(=O)NCCNC(=O)CCC(=O)N(C)O`: above 100 µM; `O=c1[nH]c(Nc2nc3ccccc3[nH]2)nc(O)c1-c1ccccc1`: above 100 µM; `COc1cccc2c1OC1(C=C2)Oc2ccccc2C(=O)N1C` (stereo not given): above 100 µM.
Same read-out and setting: next, `CC1=NS(=O)(=O)c2ccccc2N1`: above 100 µM.
As to `O=C(CC(C(=O)c1ccsc1)c1ccc2c(c1)OCO2)c1ccccc1` (stereo not given), the TGI is above 100 µM.
As for `COc1ccc(NC(=O)CC(=O)N2N=C(N3c4ccccc4Sc4ccccc43)CC2c2ccccc2)cc1` (stereo not given), the TGI is above 100 µM.
For the compound `CC1(C)C2CCC1(C)[C@H](n1c(=O)n([C@@H]3CC4CCC3(C)C4(C)C)c(=O)n([C@@H]3CC4CCC3(C)C4(C)C)c1=O)C2`, the TGI was above 100 µM.
With `CSc1nsc(-c2ccccc2)[s+]1`, the TGI is above 100 µM.
In turn, `CC(=N/N=C/c1ccccn1)/C(C)=N/N=C(C)/C(C)=N/N=C(C)/C(C)=N/N=C(C)/C(C)=N\N=C\c1ccccn1` showed a TGI above 100 µM.
As for `Cc1ccc(-c2[nH]c(=O)n(C3OC(CO)C(O)C(O)C3O)c(=O)c2C#N)cc1` (stereo not given), the TGI is above 100 µM.
Compound `Cc1cc(C(=O)CCCCOc2ccc(C3=NCCO3)cc2)c(C)n1C` registered a TGI of 34.9 µM.

Another assay relates to OVCAR-5 ovarian. In words: growth of human tumour cells (NCI), 48 h.
In turn, `CC1=NN(c2cccc(Cl)c2)C2(SCC(=O)N2c2nc3ccccc3s2)/C1=C\c1ccccc1O` (stereo not given) displayed a TGI above 100 µM.
`CCCCCCOc1ccc(C(=O)NOC)cc1` came in with a TGI above 100 µM.
Still for that read-out and setting: next, `Cc1c(S(=O)(=O)c2ccccc2)c(N)n(CCN(C)C)c1C`: above 100 µM; `CC1CCC(C(=O)O)(C(Br)C(=O)O)CC1` (stereo not given): above 100 µM.
Still for that read-out and setting: next, `COc1cc(NS(C)(=O)=O)ccc1Nc1cc(C)[nH]c2ccc3nccc3c12`: above 100 µM.
